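Cultured in 96-well plates, cells were exposed to test compound for 48 hours across five concentrations. Here, GI50 denotes the concentration required for 50% inhibition of growth. Definition used: TGI = concentration required for complete inhibition of growth.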
What was measured:
Assay in all cases: growth of human tumour cells (NCI), 48 h
[1] = test system: SNB-75 CNS
[2] = test system: 786-0 renal
[3] = test system: NCI-H460 lung
[4] = test system: RXF 393 renal
[5] = test system: HCC-2998 colon
[6] = test system: UACC-257 melanoma
[7] = test system: MALME-3M melanoma
[8] = test system: SW-620 colon
[9] = test system: LOX IMVI melanoma
[10] = test system: PC-3 prostate
[11] = test system: UO-31 renal
[12] = test system: ACHN renal
[13] = test system: CCRF-CEM leukemia
[14] = test system: HOP-92 NSCLC
[15] = test system: HT29 colon
[16] = test system: RPMI-8226 leukemia
[17] = test system: COLO 205 colon
[18] = test system: EKVX NSCLC
[19] = test system: HOP-62 NSCLC
[20] = test system: K-562 leukemia
[21] = test system: SNB-19 CNS
[22] = test system: SN12C renal
[23] = test system: CAKI-1 renal
[24] = test system: SK-MEL-28 melanoma
[25] = test system: KM12 colon
[26] = test system: SR leukemia
[27] = test system: SF-295 CNS
[28] = test system: MOLT-4 leukemia
[29] = test system: U251 CNS
[30] = test system: NCI-H522 lung
[31] = test system: A549 NSCLC
[32] = test system: DU-145 prostate
[33] = test system: HCT-116 colon
[34] = test system: SK-MEL-2 melanoma
[35] = test system: HCT-15 colon
[36] = test system: NCI-H23 lung
[37] = test system: IGROV1 ovarian
[38] = test system: NCI-H226 lung
[39] = test system: SK-MEL-5 melanoma
[40] = test system: OVCAR-3 ovarian
[41] = test system: OVCAR-5 ovarian
[42] = test system: NCI/ADR-RES ovarian
[43] = test system: SF-268 CNS
[44] = test system: TK-10 renal
[45] = test system: OVCAR-4 ovarian
[46] = test system: M14 melanoma
[47] = test system: MCF7 breast
[48] = test system: BT-549 breast
[49] = test system: OVCAR-8 ovarian
[50] = test system: HS 578T breast
[51] = test system: A498 renal
[52] = test system: SF-539 CNS
[53] = test system: T-47D breast

C=CN(C(=O)N1CCN(c2cc3c(cc2F)c(=O)c(C(=O)O)cn3C2CC2)CC1)c1nc(-c2ccc(OC)cc2)cs1
GI50 [1]: 2.51 µM
TGI [1]: 6.7 µM
GI50 [2]: 3.37 µM
TGI [2]: 23.1 µM
GI50 [3]: 3.54 µM
TGI [3]: > 100 µM
GI50 [4]: 5.2 µM
TGI [4]: 45.1 µM
GI50 [5]: 5.12 µM
TGI [5]: > 100 µM
GI50 [6]: 2.97 µM
TGI [6]: 7.18 µM
GI50 [7]: 4.11 µM
TGI [7]: > 100 µM
GI50 [8]: 4.04 µM
TGI [8]: > 100 µM
GI50 [9]: 2.45 µM
TGI [9]: > 100 µM
GI50 [10]: 3.65 µM
TGI [10]: > 100 µM
GI50 [11]: 2.1 µM
TGI [11]: > 100 µM
GI50 [12]: 3.77 µM
TGI [12]: > 100 µM
GI50 [13]: 3.45 µM
TGI [13]: > 100 µM
GI50 [14]: 2.45 µM
TGI [14]: 5.57 µM
GI50 [15]: 3.42 µM
TGI [15]: > 100 µM
GI50 [16]: 2.75 µM
TGI [16]: > 100 µM
GI50 [17]: 2.54 µM
TGI [17]: 6.59 µM
GI50 [18]: 4.12 µM
TGI [18]: > 100 µM
GI50 [19]: 3.37 µM
TGI [19]: 65.4 µM
GI50 [20]: 3.14 µM
TGI [20]: > 100 µM
GI50 [21]: 4.7 µM
TGI [21]: 46 µM
GI50 [22]: 3.14 µM
TGI [22]: > 100 µM
GI50 [23]: 2.84 µM
TGI [23]: 18.3 µM
GI50 [24]: 4.26 µM
TGI [24]: > 100 µM
GI50 [25]: 3.12 µM
TGI [25]: > 100 µM
GI50 [26]: 2.69 µM
TGI [26]: > 100 µM
GI50 [27]: 2.83 µM
TGI [27]: 8.26 µM
GI50 [28]: 3.36 µM
TGI [28]: > 100 µM
GI50 [29]: 4.04 µM
TGI [29]: 13.4 µM
GI50 [30]: 2.67 µM
TGI [30]: 6.95 µM
GI50 [31]: 3.39 µM
TGI [31]: > 100 µM
GI50 [32]: 3.93 µM
TGI [32]: > 100 µM
GI50 [33]: 3.42 µM
TGI [33]: > 100 µM
GI50 [34]: 2.59 µM
TGI [34]: 5.21 µM
GI50 [35]: 2.86 µM
TGI [35]: > 100 µM
GI50 [36]: 3.48 µM
TGI [36]: 14.9 µM
GI50 [37]: 3.89 µM
TGI [37]: > 100 µM
GI50 [38]: 2.9 µM
TGI [38]: > 100 µM
GI50 [39]: 2.11 µM
TGI [39]: 4.78 µM
GI50 [40]: 3.29 µM
TGI [40]: > 100 µM
GI50 [41]: 5.13 µM
TGI [41]: > 100 µM
GI50 [42]: 3.07 µM
TGI [42]: 9.07 µM
GI50 [43]: 4.14 µM
TGI [43]: > 100 µM
GI50 [44]: 5.23 µM
TGI [44]: 23.7 µM
GI50 [45]: 3.96 µM
TGI [45]: > 100 µM
GI50 [46]: 3.61 µM
TGI [46]: > 100 µM
GI50 [47]: 3.36 µM
TGI [47]: > 100 µM
GI50 [48]: 2.39 µM
TGI [48]: 7.52 µM
GI50 [49]: 3.3 µM
TGI [49]: 15.5 µM
GI50 [50]: 3.22 µM
TGI [50]: 14.5 µM
GI50 [51]: 2.93 µM
TGI [51]: > 100 µM
GI50 [52]: 2.8 µM
TGI [52]: 7.78 µM
GI50 [53]: 3.12 µM
TGI [53]: > 100 µM
